Assay results: US20260256794A1, “Oral Dynamine Formulations and Methods Therefor” (Ortho-Nutra, LLC, priority 2023, published 2026)

Experiments:
[1] = test system: subjects; assay: VAS-Ability to concentrate; type: in vivo, human; design: VAS-Ability to concentrate rating, Mean / VAS-Ability to concentrate changes from baseline, Mean Difference ± SE / VAS-Ability to concentrate area under the curve, Mean Difference ± SE / VAS-Ability to concentrate area under the curve, Mean: scale not given here
Protocol: (§1) The inventors have discovered various compositions and methods of improving various indices of neurological and neuroenergetic functions by administering 100 mg (once daily) dosages of DYNAMINE™ (dosage between 1.0 and 1.4 mg/kg) as described in the following:
(§2) All neuroenergetic tests as listed below were performed and data were collected after 0 and 4 days of assigned supplements (with acute effects also measured at day 4 over 180 minutes):
All VAS Measurement (Energy, Sustained Energy, Mental Stamina, Ability to Focus, Ability to Concentrate, Motivation to Accomplish Difficult Tasks, Drive, Vigor, Level of Positive Outlook, Mood, Feelings of Well-Being, Tolerate Stress); Day 0: Two tests were completed. The average of both scores was computed and this value was used in all statistical analysis. Day 4 (0 minutes after ingesting dose #4): Two tests were completed. The average of both scores was computed and this value was used in all statistical analysis. Day 4 (60, 120, and 180 minutes after ingesting dose #4): One test was completed at each time point.
Neuroenergic parameters are inherently subjective, nevertheless significant in human behavior and well-being. To allow for a standardization among different subjects, the following experiments were performed using a visual analog scale using anchor statements (lowest possible/highest possible) in which subjects were asked to rate their subjective experience with respect to the specific neuroenergic parameters tested.
VAS-Ability to concentrate: In this subjective test, subjects were asked to rate their personal level of energy on a VAS scale using the prompt of “My ability to concentrate right now is . . . ” (with rating lowest possible to highest possible)”. Results were collected as noted above and Table 16 provides exemplary results for Day 0 versus Day 4 ratings, whereas Table 17 provides exemplary acute results measured at Day 4 over a duration of 180 minutes.

[2] = test system: subjects; assay: Trail Making Test; type: in vivo, human; conditions: for Trail Making Test score, Mean: lower = faster
Protocol: as §1, §2
Trail Making Test: Day 0: Two blocks of three tests were completed. Each block of three tests was separated by 10 minutes. The median of each block was taken and then those two scores were averaged. This value was used in all statistical analysis. Day 4: Three tests were completed at four time points: after 0, 60, 120, and 180 minutes of taking dose #4. The median of the three tests at each time point was used in all statistical analysis.
The trail making test has at least two test conditions. In Condition A, a subject is asked to draw lines to connect circled numbers in a numerical sequence (e.g., 1-2-3, etc.) as rapidly in possible. In Condition B the subject is asked to draw lines to connect circled numbers and letters in an alternating numeric and alphabetic sequence (i.e., 1-A-2-B, etc.) as rapidly as possible. Although trail making tests are conceptually very simple, they are thought to reflect a wide variety of cognitive processes including attention, visual search and scanning, sequencing and shifting, psychomotor speed, abstraction, flexibility, ability to execute and modify a plan of action, and ability to maintain two trains of thought simultaneously.

[3] = 100 mg once daily, Day 4, 0-180 min, vs Group A (placebo)
[4] = 100 mg once daily, Day 4, 0 min after dose #4
[5] = 100 mg once daily, Day 4, 60 min-0 min, vs Group A (placebo)
[6] = 100 mg once daily, Day 4, 60 min after dose #4
[7] = 100 mg once daily, Day 4, 120 min-0 min, vs Group A (placebo)
[8] = 100 mg once daily, Day 4, 120 min after dose #4
[9] = 100 mg once daily, Day 4, 180 min-0 min, vs Group A (placebo)
[10] = 100 mg once daily, Day 4, 180 min after dose #4

COc1nc2c(c(=O)n1C)n(C)c(=O)n2C [methylliberine, 2-methoxy-1,7,9-trimethylpurine-6,8-dione]
VAS-Ability to concentrate area under the curve, Mean ([1]; 100 mg once daily, Day 4, 0-180 min): 1162 | VAS-Ability to concentrate area under the curve, Mean Difference ± SE [1, 3]: 48.1 ± 38.7 | VAS-Ability to concentrate area under the curve, effect size d [1, 3]: 0.16 | VAS-Ability to concentrate rating, Mean [1, 4]: 5.9 | VAS-Ability to concentrate changes from baseline, Mean Difference ± SE [1, 5]: 0.26 ± 0.26 | VAS-Ability to concentrate changes from baseline, effect size d [1, 5]: 0.28 | VAS-Ability to concentrate rating, Mean [1, 6]: 6.5 | VAS-Ability to concentrate changes from baseline, Mean Difference ± SE [1, 7]: 0.15 ± 0.27 | VAS-Ability to concentrate changes from baseline, effect size d [1, 7]: 0.14 | VAS-Ability to concentrate rating, Mean [1, 8]: 6.5 | VAS-Ability to concentrate changes from baseline, Mean Difference ± SE [1, 9]: 0.70 ± 0.23 | VAS-Ability to concentrate changes from baseline, effect size d [1, 9]: 0.68 | VAS-Ability to concentrate rating, Mean [1, 10]: 6.8 | VAS-Ability to concentrate rating, Mean ([1]; Day 0 (before supplementation)): 5.9 | Trail Making Test score, Mean [2, 4]: 21.6 | Trail Making Test score, Mean [2, 6]: 20.4 | Trail Making Test score, Mean [2, 8]: 20.2 | Trail Making Test score, Mean [2, 10]: 20.3 | improvement in TMT performance ([2]; 4-days daily supplementation, Day 4 vs Day 0, p<0.001): +11.1% | Trail Making Test score, Mean ([2]; Day 0 (before supplementation)): 24.3
